Laboratory results taken from ChEMBL document CHEMBL3885881, “DrugMatrix”.

Species: Rattus norvegicus
Experiment: DrugMatrix - Regimen: Daily Repeat
Format: toxicity, organism-based, Sprague-Dawley
Parameters: regimen Daily Repeat, gender Male, age 6-8 weeks
Settings: in vivo, ip, 0.5 mg/kg, route intraperitoneal, dose level High, vehicle 100 % SALINE; for ALANINE AMINOTRANSFERASE / ALBUMIN / ALKALINE PHOSPHATASE / ASPARTATE AMINOTRANSFERASE / BLOOD UREA NITROGEN / CHLORIDE / CHOLESTEROL / CREATINE PHOSPHOKINASE / CREATININE / GLUCOSE / LACTATE DEHYDROGENASE / LIPASE / PHOSPHORUS / POTASSIUM / SODIUM / TOTAL BILIRUBIN / TOTAL PROTEIN / URIC ACID: tissue Plasma
[1] = 120 h, tissue Blood, time 5 day

TRANSPLATIN was tested, and the ABSOLUTE BASOPHIL [1] was 86 cells/µL, the ABSOLUTE EOSINOPHIL [1] was 98 cells/µL and the ABSOLUTE LYMPHOCYTE [1] was 10800 cells/µL. It also gave an ABSOLUTE MONOCYTE [1] of 340 cells/µL, an ABSOLUTE SEGMENTED NEUTROPHIL [1] of 1910 cells/µL and a BASOPHIL [1] of 0.64%. The EOSINOPHIL [1] was 0.74%, the “ERYTHROCYTE COUNT” value [1] was 7.41 x10E6/uL and the HEMATOCRIT [1] was 45.48%. The HEMOGLOBIN [1] was 14.92 G/DL, the “LEUKOCYTE COUNT” value [1] was 13.36 x10E3/uL and the LYMPHOCYTE [1] was 80.42%. The “MEAN CORPUSCULAR HEMOGLOBIN” value [1] was 20.12 pg, the “MEAN CORPUSCULAR HEMOGLOBIN CONCENTRATION” value [1] was 32.8 G/DL and the MONOCYTE [1] was 2.5%. For the same sequence, the NEUTROPHIL [1] was 14.94%, the “PLATELET COUNT” value [1] was 1349 x10E3/uL and the “ALANINE AMINOTRANSFERASE” value (120 h, time 5 day) was 30.2 u/L. The ALBUMIN (120 h, time 5 day) was 3.6 G/DL, the “ALKALINE PHOSPHATASE” value (120 h, time 5 day) was 229 u/L and the “ASPARTATE AMINOTRANSFERASE” value (120 h, time 5 day) was 82.8 u/L. The “BLOOD UREA NITROGEN” value (120 h, time 5 day) was 15 mg/dL, the CHLORIDE (120 h, time 5 day) was 110 MEQ/L and the CHOLESTEROL (120 h, time 5 day) was 67.2 mg/dL. The “CREATINE PHOSPHOKINASE” value (120 h, time 5 day) was 368.2 u/L, the CREATININE (120 h, time 5 day) was 0.52 mg/dL and the GLUCOSE (120 h, time 5 day) was 119 mg/dL. For the same sequence, the “LACTATE DEHYDROGENASE” value (120 h, time 5 day) was 67.6 u/L, the LIPASE (120 h, time 5 day) was 22.4 u/L and the PHOSPHORUS (120 h, time 5 day) was 9.94 mg/dL. The POTASSIUM (120 h, time 5 day) was 6.16 MEQ/L, the SODIUM (120 h, time 5 day) was 151.8 MEQ/L and the “TOTAL BILIRUBIN” value (120 h, time 5 day) was 0.2 mg/dL. For the same sequence, the “TOTAL PROTEIN” value (120 h, time 5 day) was 6.2 G/DL, the “URIC ACID” value (120 h, time 5 day) was 0.98 mg/dL and the ABSOLUTE BASOPHIL ([…], tissue Blood, time 14 day) was 68 cells/µL. The ABSOLUTE EOSINOPHIL ([…], tissue Blood, time 14 day) was 76 cells/µL, the ABSOLUTE LYMPHOCYTE ([…], tissue Blood, time 14 day) was 6430 cells/µL and the ABSOLUTE MONOCYTE ([…], tissue Blood, time 14 day) was 260 cells/µL. For the same sequence, the ABSOLUTE SEGMENTED NEUTROPHIL ([…], tissue Blood, time 14 day) was 2460 cells/µL, the BASOPHIL ([…], tissue Blood, time 14 day) was 0.74% and the EOSINOPHIL ([…], tissue Blood, time 14 day) was 0.84%. The “ERYTHROCYTE COUNT” value ([…], tissue Blood, time 14 day) was 7.71 x10E6/uL, the HEMATOCRIT ([…], tissue Blood, time 14 day) was 46.84% and the HEMOGLOBIN ([…], tissue Blood, time 14 day) was 15.04 G/DL. For the same sequence, the “LEUKOCYTE COUNT” value ([…], tissue Blood, time 14 day) was 9.33 x10E3/uL, the LYMPHOCYTE ([…], tissue Blood, time 14 day) was 69.2% and the “MEAN CORPUSCULAR HEMOGLOBIN” value ([…], tissue Blood, time 14 day) was 19.52 pg. The “MEAN CORPUSCULAR HEMOGLOBIN CONCENTRATION” value ([…], tissue Blood, time 14 day) was 32.1 G/DL, the MONOCYTE ([…], tissue Blood, time 14 day) was 2.7% and the NEUTROPHIL ([…], tissue Blood, time 14 day) was 26.14%. The “PLATELET COUNT” value ([…], tissue Blood, time 14 day) was 1318.6 x10E3/uL, the ABSOLUTE BASOPHIL ([…], tissue Blood, time 28 day) was 120 cells/µL and the ABSOLUTE EOSINOPHIL ([…], tissue Blood, time 28 day) was 130 cells/µL. For the same sequence, the ABSOLUTE LYMPHOCYTE ([…], tissue Blood, time 28 day) was 9640 cells/µL, the ABSOLUTE MONOCYTE ([…], tissue Blood, time 28 day) was 190 cells/µL and the ABSOLUTE SEGMENTED NEUTROPHIL ([…], tissue Blood, time 28 day) was 1790 cells/µL. The BASOPHIL ([…], tissue Blood, time 28 day) was 1.07%, the EOSINOPHIL ([…], tissue Blood, time 28 day) was 1.08% and the “ERYTHROCYTE COUNT” value ([…], tissue Blood, time 28 day) was 8.68 x10E6/uL. For the same sequence, the HEMATOCRIT ([…], tissue Blood, time 28 day) was 49.56%, the “LEUKOCYTE COUNT” value ([…], tissue Blood, time 28 day) was 11.93 x10E3/uL and the LYMPHOCYTE ([…], tissue Blood, time 28 day) was 80.6%. The “MEAN CORPUSCULAR HEMOGLOBIN” value ([…], tissue Blood, time 28 day) was 18.81 pg, the “MEAN CORPUSCULAR HEMOGLOBIN CONCENTRATION” value ([…], tissue Blood, time 28 day) was 32.89 G/DL and the “MEAN CORPUSCULAR VOLUME” value ([…], tissue Blood, time 28 day) was 57.13 fL. For the same sequence, the MONOCYTE ([…], tissue Blood, time 28 day) was 1.64%, the NEUTROPHIL ([…], tissue Blood, time 28 day) was 15.11% and the “PLATELET COUNT” value ([…], tissue Blood, time 28 day) was 1319.89 x10E3/uL. For the same sequence, the “ALANINE AMINOTRANSFERASE” value ([…], time 14 day) was 24.6 u/L, the ALBUMIN ([…], time 14 day) was 3.5 G/DL and the “ALKALINE PHOSPHATASE” value ([…], time 14 day) was 202 u/L. For the same sequence, the “ASPARTATE AMINOTRANSFERASE” value ([…], time 14 day) was 78.6 u/L, the “BLOOD UREA NITROGEN” value ([…], time 14 day) was 12.6 mg/dL and the CHOLESTEROL ([…], time 14 day) was 52.8 mg/dL. The “CREATINE PHOSPHOKINASE” value ([…], time 14 day) was 180.2 u/L, the CREATININE ([…], time 14 day) was 0.58 mg/dL and the GLUCOSE ([…], time 14 day) was 120.4 mg/dL. For the same sequence, the “LACTATE DEHYDROGENASE” value ([…], time 14 day) was 80.8 u/L, the LIPASE ([…], time 14 day) was 54.4 u/L and the POTASSIUM ([…], time 14 day) was 5.82 MEQ/L. For the same sequence, the SODIUM ([…], time 14 day) was 150.8 MEQ/L, the “TOTAL BILIRUBIN” value ([…], time 14 day) was 0.3 mg/dL and the “TOTAL PROTEIN” value ([…], time 14 day) was 6.48 G/DL. The “URIC ACID” value ([…], time 14 day) was 0.98 mg/dL, the “ALANINE AMINOTRANSFERASE” value ([…], time 28 day) was 35.44 u/L and the ALBUMIN ([…], time 28 day) was 3.69 G/DL. The “ALKALINE PHOSPHATASE” value ([…], time 28 day) was 151 u/L, the “ASPARTATE AMINOTRANSFERASE” value ([…], time 28 day) was 83 u/L and the “BLOOD UREA NITROGEN” value ([…], time 28 day) was 14 mg/dL. For the same sequence, the CHLORIDE ([…], time 28 day) was 108.89 MEQ/L, the CHOLESTEROL ([…], time 28 day) was 61.44 mg/dL and the “CREATINE PHOSPHOKINASE” value ([…], time 28 day) was 144.22 u/L. The CREATININE ([…], time 28 day) was 0.58 mg/dL, the GLUCOSE ([…], time 28 day) was 132.22 mg/dL and the “LACTATE DEHYDROGENASE” value ([…], time 28 day) was 67.22 u/L. It also gave an LIPASE ([…], time 28 day) of 45.22 u/L, a PHOSPHORUS ([…], time 28 day) of 9.38 mg/dL and an SODIUM ([…], time 28 day) of 151.78 MEQ/L. For the same sequence, the “TOTAL BILIRUBIN” value ([…], time 28 day) was 0.2 mg/dL, the “TOTAL PROTEIN” value ([…], time 28 day) was 6.82 G/DL and the “URIC ACID” value ([…], time 28 day) was 1.21 mg/dL.
